Consider four compounds from publication PMC6990627 (ACS Omega, 2020).

Where “and” joins values, the source holds several entries; their conditions need not be identical. Equal values may be shown once. Where a name gives a salt, the structure may show the parent alone. Read-outs that look alike come from different tables or passages of the source.

The target of one assay is EeAChE (Electrophorus electricus, UniProt O42275). The assay can be described thus: Ellman assay, EeAChE inhibition. To be noted: average of three determinations. In kind it is biochemical.
Assay [1] concerns the target T1, eqBChE (Equus caballus, UniProt P81908). In words: Ellman assay, eqBChE inhibition. In kind it is biochemical, equine. To be noted: screened at 10 and 100 μM. In general terms: In Ellman's method for cholinesterases, released thiocholine reacts with DTNB.
Another assay deals with AChE. To be noted: read-out: AChE IC50, cited from earlier work.
The target in assay [2] is T1, eqBChE. In words: Enzyme kinetics. Format: biochemical, equine. The settings on record: Lineweaver-Burk plot.

Sequence of EeAChE (O42275 24-633): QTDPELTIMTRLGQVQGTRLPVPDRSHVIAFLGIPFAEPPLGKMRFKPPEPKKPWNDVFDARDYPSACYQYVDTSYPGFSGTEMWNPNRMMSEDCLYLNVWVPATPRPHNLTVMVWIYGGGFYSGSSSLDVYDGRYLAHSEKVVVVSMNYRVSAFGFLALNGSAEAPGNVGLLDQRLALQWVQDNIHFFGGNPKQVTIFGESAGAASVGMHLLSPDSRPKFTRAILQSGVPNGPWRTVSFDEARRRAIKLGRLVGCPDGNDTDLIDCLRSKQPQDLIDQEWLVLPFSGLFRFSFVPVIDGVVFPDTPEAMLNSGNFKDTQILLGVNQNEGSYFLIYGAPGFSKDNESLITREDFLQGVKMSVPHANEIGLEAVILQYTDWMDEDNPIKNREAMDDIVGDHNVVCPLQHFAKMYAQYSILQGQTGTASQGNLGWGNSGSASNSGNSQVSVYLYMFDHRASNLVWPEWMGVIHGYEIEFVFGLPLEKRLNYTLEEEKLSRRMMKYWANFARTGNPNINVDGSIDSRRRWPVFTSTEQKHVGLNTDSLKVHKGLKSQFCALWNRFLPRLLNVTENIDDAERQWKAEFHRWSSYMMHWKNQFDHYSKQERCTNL
T1 sequence (P81908 whole entry): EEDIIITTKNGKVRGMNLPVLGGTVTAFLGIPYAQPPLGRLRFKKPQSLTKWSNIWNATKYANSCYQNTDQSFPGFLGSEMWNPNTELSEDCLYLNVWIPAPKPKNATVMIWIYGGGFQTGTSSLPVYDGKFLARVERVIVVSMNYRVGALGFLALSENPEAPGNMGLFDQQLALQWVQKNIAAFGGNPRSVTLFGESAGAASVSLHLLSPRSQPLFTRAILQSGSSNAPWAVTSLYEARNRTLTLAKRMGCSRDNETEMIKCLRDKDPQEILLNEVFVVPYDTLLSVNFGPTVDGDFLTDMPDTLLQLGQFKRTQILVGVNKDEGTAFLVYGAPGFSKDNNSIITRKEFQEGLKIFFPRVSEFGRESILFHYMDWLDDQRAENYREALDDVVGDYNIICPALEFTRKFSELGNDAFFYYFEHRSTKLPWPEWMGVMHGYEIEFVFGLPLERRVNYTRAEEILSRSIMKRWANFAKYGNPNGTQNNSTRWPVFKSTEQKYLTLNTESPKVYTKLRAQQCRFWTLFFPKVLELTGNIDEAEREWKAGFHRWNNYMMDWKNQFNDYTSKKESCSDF

One may read the IC50 as the point on the concentration scale where inhibition reaches its midpoint. In the case of `Cc1cc(O)c2c(c1)C(=O)c1cccc(O)c1C2=O` [chrysophanol], the IC50 at EeAChE is 34 µM and 33.7 µM; in the assay on AChE (ref 19) it was 68.6 µM; with AChE (ref 20), 75.8 µM. Further, the “activity against BChE (in words)” value on eqBChE [1] is recorded as “weakly active”.
With `COc1cc2c(cc1OC)C(=O)C(CC1CCN(Cc3ccccc3)CC1)C2` (stereo not drawn) [donepezil HCl, donepezil hydrochloride], the “type of inhibition, eqBChE” value at eqBChE [2] was “noncompetitive”.
With `Cc1cc(O)c2c(c1)C(=O)c1cc(O)cc(O)c1C2=O` [emodin], the IC50 against EeAChE is 15 µM and 15.2 µM; in the assay on AChE (ref 19), 9.17 µM; with AChE (ref 20), 21.8 µM. Besides, the “activity against BChE (in words)” value at eqBChE [1] is “weakly active”.
For `COc1cc(O)c2c(c1)C(=O)c1cc(C)cc(O)c1C2=O` [physcion], the IC50 against EeAChE was 12 µM and 12.2 µM; with AChE (ref 19), 8.25 µM. In addition, the “activity against BChE (in words)” value at eqBChE [1] is “weakly active”.
